Reference: patent publication US9932355B2, “2,5,6,7-tetrasubstituted thiazolo[4,5-b]pyridine derivatives and use thereof” (KYUNGPOOK NATIONAL UNIVERSITY INDUSTRY-ACADEMIC COOPERATION …, priority 2014, dated 2018)

Tested on: CLP-induced sepsis mouse model
Assay: Survival rate of CLP-induced sepsis mouse model
Assay type: in vivo
Conditions: male ICR mice, CLP surgery; tail intravenous injection 12 and 50 hours after surgery; FIG. 1
Protocol: An anti-inflammation effect of the prepared compound was tested by a survival rate of the sepsis mouse model induced by peritonitis. A CLP-induced sepsis mouse model is an in vivo method for investigating an anti-inflammation action, and the manufacturing method of the mouse model is a widely used experiment method [Wang H, Nat. Med., 2004, 10, 1216-1221]. 40 six-week-old male ICR mice were divided into 10 mice per each group, and the survival rate was observed.
First, after the male mouse was anesthetized by respiration using isoflurane, the abdomen of the mouse was cut in the middle by approximately 2 cm to take out an appendix adjacent to intestines, and the appendix was tied up at a part apart from 0.5 mm from the end of the appendix with a 3.0-silk suture, pierced once with a 22-gauge needle, and sutured the cut part with a 4.0 silk suture. An abdomen of a sham mouse was cut and sutured without tie-up or piercing of the appendix, and after 12 and 50 hours of the surgery, the prepared compound was administered by mouse tail intravenous injection.

COc1ccc(CNc2nc3nc4c(c(-c5ccc(OC)cc5)c3s2)CCCC4)cc1 [Compound 1-65, N-(4-methoxybenzyl)-9-(4-methoxyphenyl)-5,6,7,8-tetrahydrothiazolo[4,5-b]quinoline-2-amine]
survival rate increased, compared to the only CLP-treated group: 60%
